Measurements reported in ChEMBL document CHEMBL5705903, “A DNA Hypomethylation Signature Predicts Antitumor Activity of LSD1 Inhibitors in SCLC” (Cancer Cell, 2015).
pKi: −log10 of the molar value. Active and inactive are the calls of the source. No cut-off for these calls is given here.

What was measured:
[1] = Effect on cleaved PARP level in human NCI-H524 cells assessed as relative expression at 1000 nM measured after 10 days by Western blot analysis (reference value: 0.95); type: functional; conditions: time 10 day
[2] = Effect on cleaved PARP level in human COLO-668 cells assessed as fold change at 1000 nM measured after 14 days by Western blot analysis (reference value: 1.00); type: functional; conditions: time 14 day
[3] = target: Lysine-specific histone demethylase 1A (Homo sapiens, UniProt O60341); test: Binding affinity to LSD1 (unknown origin) using H3K4me2 as substrate assessed as apparent inhibition constant by HRP-coupled amplex red assay; conditions: read-out: Ki(app)
[4] = Effect on cleaved PARP level in human NCI-H1417 cells assessed as relative expression at 1000 nM measured after 14 days by Western blot analysis (reference value: 0.38); type: functional; conditions: time 14 day
[5] = Oral bioavailability in mouse at 5 mg/kg by HPLC/MS/MS analysis; type: ADME, organism-based; conditions: in vivo
[6] = Effect on cleaved PARP level in human NCI-H510 cells assessed as fold change at 10 nM measured after 10 days by Western blot analysis (reference value: 1.00); type: functional, NCI-H510A; conditions: time 10 day
NCI-H2171 = test: Antitumor activity against human NCI-H2171 cells xenografted in nude mouse assessed as mean tumor volume at […] mg/kg, po administered daily measured twice weekly (reference value: 1553 +/- 339 mm3); type: functional; conditions: 1.25 mg/kg
NCI-H69 = test: Antitumor activity against human NCI-H69 cells xenografted in nude mouse assessed as mean tumor volume at 0.5 mg/kg, po administered daily measured twice weekly (reference value: 1063 +/- 161 mm3); type: functional
[7] = Effect on cleaved PARP level in human NCI-H524 cells assessed as relative expression at 100 nM measured after 7 days by Western blot analysis (reference value: 0.63); type: functional; conditions: time 7 day
NCI-H526 [8] = test: In vivo inhibition of LSD1 in human NCI-H526 cells xenografted in nude mouse assessed as change in ANXA6 gene expression administrated daily for 5 days by qRT-PCR analysis; type: functional, organism-based; conditions: dose 0.02-135 mg/kg, time 5.0 day
[9] = Effect on cleaved PARP level in human NCI-H146 cells assessed as relative expression at 10 nM measured after 10 days by Western blot analysis (reference value: 0.27); type: functional; conditions: time 10 day
[10] = Effect on cleaved PARP level in human NCI-H146 cells assessed as relative expression at 100 nM measured after 14 days by Western blot analysis (reference value: 2.42); type: functional; conditions: time 14 day
NCI-H526 [11] = test: Upregulation of LSD1 signal enrichment at super enhancers in human NCI-H526 cells at 1 uM; type: functional, cell-based
[12] = Effect on cleaved PARP level in human NCI-H1417 cells assessed as fold change at 1000 nM measured after 10 days by Western blot analysis (reference value: 1.00); type: functional; conditions: time 10 day
[13] = Effect on cleaved PARP level in human NCI-H510 cells assessed as fold change at 100 nM measured after 14 days by Western blot analysis (reference value: 1.00); type: functional, NCI-H510A; conditions: time 14 day
[14] = Effect on cleaved PARP level in human NCI-H524 cells assessed as fold change at 1000 nM measured after 14 days by Western blot analysis (reference value: 1.00); type: functional; conditions: time 14 day
[15] = Effect on cleaved PARP level in human NCI-H889 cells assessed as fold change at 1000 nM measured after 7 days by Western blot analysis (reference value: 1.00); type: functional; conditions: time 7 day
[16] = Effect on cleaved PARP level in human COLO-668 cells assessed as fold change at 10 nM measured after 10 days by Western blot analysis (reference value: 1.00); type: functional; conditions: time 10 day
[17] = Effect on cleaved PARP level in human NCI-H2171 cells assessed as relative expression at 1000 nM measured after 7 days by Western blot analysis (reference value: 0.02); type: functional; conditions: time 7 day
[18] = Effect on cleaved PARP level in human NCI-H889 cells assessed as fold change at 1000 nM measured after 10 days by Western blot analysis (reference value: 1.00); type: functional; conditions: time 10 day
[19] = Effect on cleaved PARP level in human NCI-H1417 cells assessed as relative expression at 10 nM measured after 10 days by Western blot analysis (reference value: 0.19); type: functional; conditions: time 10 day
NCI-H1417 [20] = test: In vivo inhibition of LSD1 in human NCI-H1417 cells xenografted in nude mouse assessed as change in SAMD5 gene expression measured after 24 hrs post single administration by qRT-PCR analysis; type: functional, organism-based; conditions: dose 0.02-135 mg/kg
[21] = Effect on cleaved PARP level in human NCI-H526 cells assessed as relative expression at 100 nM measured after 14 days by Western blot analysis (reference value: 0.66); type: functional; conditions: time 14 day
[22] = Cmax in mouse blood at 5 mg/kg, po by HPLC/MS/MS analysis; type: ADME, organism-based
[23] = Effect on cleaved PARP level in human NCI-H524 cells assessed as fold change at 100 nM measured after 7 days by Western blot analysis (reference value: 1.00); type: functional; conditions: time 7 day
D-amino-acid oxidase = D-amino-acid oxidase (Homo sapiens, UniProt P14920)
Description: Binding affinity to D-amino acid oxidase (unknown origin) assessed as inactivation constant

NCI-H1417 [24] = test: In vivo inhibition of LSD1 in human NCI-H1417 cells xenografted in nude mouse assessed as change in LBH gene expression measured after 24 hrs post single administration by qRT-PCR analysis; type: functional, organism-based; conditions: dose 0.02-135 mg/kg
[25] = Effect on cleaved PARP level in human NCI-H510 cells assessed as fold change at 1000 nM measured after 10 days by Western blot analysis (reference value: 1.00); type: functional, NCI-H510A; conditions: time 10 day
[26] = AUC (0 to last) in mouse blood at 5 mg/kg, po by HPLC/MS/MS analysis; type: ADME, organism-based
[27] = Effect on cleaved PARP level in human NCI-H524 cells assessed as fold change at 1000 nM measured after 10 days by Western blot analysis (reference value: 1.00); type: functional; conditions: time 10 day
NCI-H526 [28] = test: Effect on NSE gene expression in human NCI-H526 cells at 1 uM measured after 4 to 7 days by qRT-PCR analysis; type: functional, cell-based; conditions: time 4-7 day
[29] = Effect on cleaved PARP level in human NCI-H510 cells assessed as relative expression at 10 nM measured after 10 days by Western blot analysis (reference value: 0.02); type: functional, NCI-H510A; conditions: time 10 day
SHP77 = test: Antitumor activity against human SHP77 cells xenografted in nude mouse assessed as tumor growth inhibition at […] mg/kg, po administered daily measured twice weekly relative to control; type: functional; conditions: read-out: TGI
[30] = Effect on cleaved PARP level in human NCI-H510 cells assessed as fold change at 100 nM measured after 10 days by Western blot analysis (reference value: 1.00); type: functional, NCI-H510A; conditions: time 10 day
NCI-H526 [31] = test: Effect on NCAM gene expression in human NCI-H526 cells at 1 uM measured after 4 days by qRT-PCR analysis; type: functional, cell-based; conditions: time 4.0 day
NCI-H526 [32] = test: In vivo inhibition of LSD1 in human NCI-H526 cells xenografted in nude mouse assessed as change in ODZ2 gene expression administrated daily for 5 days by qRT-PCR analysis; type: functional, organism-based; conditions: dose 0.02-135 mg/kg, time 5.0 day

Sequence of D-amino-acid oxidase (P14920 whole entry, looked up): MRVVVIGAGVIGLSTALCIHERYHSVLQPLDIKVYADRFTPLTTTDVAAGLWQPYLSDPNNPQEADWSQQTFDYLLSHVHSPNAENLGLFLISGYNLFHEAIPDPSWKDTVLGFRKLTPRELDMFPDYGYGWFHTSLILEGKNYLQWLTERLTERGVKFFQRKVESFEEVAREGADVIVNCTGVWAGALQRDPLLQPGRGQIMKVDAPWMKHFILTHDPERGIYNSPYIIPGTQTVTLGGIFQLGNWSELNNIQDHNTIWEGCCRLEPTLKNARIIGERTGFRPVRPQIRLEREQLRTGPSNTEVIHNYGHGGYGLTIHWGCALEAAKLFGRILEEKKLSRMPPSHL

O=C(O)c1ccc(CN2CCC(CN[C@@H]3C[C@H]3c3ccccc3)CC2)cc1 [GSK2879552]
Activity [1]: 0.79 | fold change (FC) [2]: 0.29 | pKi [3]: 5.77 | Activity [4]: 0.42 | bioavailability [5]: 59.2% | fold change (FC) [6]: 4.22 | Activity (NCI-H2171): 1055 mm3 | Activity (NCI-H69): 592 mm3 | Activity [7]: 0.6 | inhibition (NCI-H526 [8]): Dose-Dependent Effect | Activity [9]: 0.33 | Activity [10]: 1.09 | Activity (NCI-H526 [11]): Active | fold change (FC) [12]: 2.12 | fold change (FC) [13]: 2.92 | fold change (FC) [14]: 0.77 | fold change (FC) [15]: 1.92 | fold change (FC) [16]: 0.75 | Activity [17]: 0.04 | fold change (FC) [18]: 2.77 | Activity [19]: 0.27 | inhibition (NCI-H1417 [20]): Dose-Dependent Effect | Activity [21]: 0.93 | Cmax [22]: 720 ng/mL | fold change (FC) [23]: 0.95 | Kinact (D-amino-acid oxidase): 0.12 min⁻¹ | inhibition (NCI-H1417 [24]): Dose-Dependent Effect | fold change (FC) [25]: 12.67 | AUC(0-t) [26]: 853 ng·h/mL | fold change (FC) [27]: 0.83 | Activity (NCI-H526 [28]): inactive | Activity [29]: 0.08 | inhibition in vivo at 1.25 mg/kg (SHP77): 17% | fold change (FC) [30]: 9.72 | Activity (NCI-H526 [31]): inactive | inhibition (NCI-H526 [32]): Dose-Dependent Effect
